From the supplement of paper PMC10307832

compound: C[C@@]1(C(=O)Nc2ccc(F)nc2)CCCN1c1nc(Nc2cc(C3CC3)n[nH]2)c2cccn2n1 + CC1(C)CCC(c2ccc(Cl)cc2)=C(CN2CCN(c3ccc(C(=O)NS(=O)(=O)c4ccc(N[C@H](CCN5CCOCC5)CSc5ccccc5)c(S(=O)(=O)C(F)(F)F)c4)cc3)CC2)C1 [Navitoclax] (partner 0.5 µM); experiment: relative viability (nuclei count vs DMSO), 5 days (fraction); higher = more cells survive; conditions: first compound 1.265 µM
How it was run: (§1)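 Lung cancer cell lines were pin-tool dosed in 1536-well plates on the day after seeding, with either a lone drug or a fixed anchor-drug dose plus five library-drug doses (not always all listed) in √10 steps. Nuclei were counted on 4× images after 5 days. Relative viability is the ratio of treated-well to vehicle-well nuclei counts, with each value a median of duplicate plates.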

Row | Cell Line | relative viability
1 | NCI-H23 | 0.664
2 | NCI-H647 | 1.14
3 | CAL-12T | 1.06
4 | NCI-H1651 | 1.16
5 | EPLC-272H | 1.21
6 | NCI-H2228 | 0.633
7 | NCI-H1355 | 0.86
8 | NCI-H3122 | 1.02
9 | NCI-H1437 | 0.919
10 | NCI-H1755 | 0.971
11 | NCI-H2023 | 0.702
12 | HCC-15 | 0.58
13 | NCI-H1793 | 0.351
14 | PC-14 | 0.941
15 | EKVX | 0.593
16 | LC-2-ad | 0.143

compound: C[C@@]1(C(=O)Nc2ccc(F)nc2)CCCN1c1nc(Nc2cc(C3CC3)n[nH]2)c2cccn2n1 + COc1cc2c(Oc3ccc(NC(=O)C4(C(=O)Nc5ccc(F)cc5)CC4)cc3F)ccnc2cc1OCCCN1CCOCC1 [Foretinib] (partner 0.25 µM); experiment: as above; conditions: first compound 0.04 µM
How it was run: as §1

Row | Cell Line | relative viability
17 | HCC-78 | 0.505
18 | NCI-H322M | 0.907
19 | LCLC-97TM1 | 0.31
20 | NCI-H2009 | 1.23
21 | A-427 | 1.19
22 | NCI-H441 | 0.631
23 | NCI-H1734 | 0.603
24 | NCI-H460 | 1.06
25 | NCI-H2347 | 1.32
26 | SK-LU-1 | 0.782
27 | NCI-H1395 | 1.05
28 | 201T | 0.747
29 | NCI-H1915 | 1.11
30 | HCC-827 | 1.03
31 | LXF-289 | 0.949
32 | NCI-H23 | 0.591

Row | Cell Line | relative viability
33 | NCI-H647 | 1.18
34 | CAL-12T | 1.15
35 | NCI-H1651 | 0.775
36 | EPLC-272H | 0.57
37 | NCI-H2228 | 0.719
38 | NCI-H1355 | 0.929
39 | NCI-H3122 | 0.978
40 | NCI-H1437 | 1.31
41 | NCI-H1755 | 0.914
42 | NCI-H2023 | 0.488
43 | HCC-15 | 0.906
44 | NCI-H1793 | 0.664
45 | PC-14 | 1.04
46 | EKVX | 0.684
47 | LC-2-ad | 0.651

same assay, conditions: first compound 0.1265 µM

Row | Cell Line | relative viability
48 | HCC-78 | 0.323
49 | NCI-H322M | 0.608
50 | LCLC-97TM1 | 0.292
51 | NCI-H2009 | 1.25
52 | A-427 | 0.988
53 | NCI-H441 | 0.46
54 | NCI-H1734 | 0.494
55 | NCI-H460 | 0.939
56 | NCI-H2347 | 0.818
57 | SK-LU-1 | 0.546
58 | NCI-H1395 | 0.84
59 | 201T | 0.629
60 | NCI-H1915 | 1.04
61 | HCC-827 | 1.14
62 | LXF-289 | 0.945
63 | NCI-H23 | 0.539
64 | NCI-H647 | 1.08
65 | CAL-12T | 1.06
66 | NCI-H1651 | 0.704
67 | NCI-H2228 | 0.686
68 | NCI-H1355 | 0.87
69 | NCI-H3122 | 0.937
70 | NCI-H1437 | 1.2
71 | NCI-H1755 | 0.729
72 | NCI-H2023 | 0.475
73 | HCC-15 | 0.485
74 | NCI-H1793 | 0.566
75 | PC-14 | 0.888
76 | EKVX | 0.751
77 | LC-2-ad | 0.617

same assay, conditions: first compound 0.4 µM

Row | Cell Line | relative viability
78 | HCC-78 | 0.347
79 | NCI-H322M | 0.62
80 | LCLC-97TM1 | 0.278
81 | NCI-H2009 | 1.1
82 | A-427 | 0.785
83 | NCI-H441 | 0.599
84 | NCI-H1734 | 0.336
85 | NCI-H460 | 1.03
86 | NCI-H2347 | 1.02
87 | SK-LU-1 | 0.602
88 | NCI-H1395 | 0.932
89 | 201T | 0.353
90 | NCI-H1915 | 1.04
91 | HCC-827 | 1.06
92 | LXF-289 | 0.937
93 | NCI-H23 | 0.622
94 | NCI-H647 | 0.886
95 | CAL-12T | 0.897
96 | NCI-H1651 | 0.621
97 | EPLC-272H | 0.558
98 | NCI-H2228 | 0.491
99 | NCI-H1355 | 0.701
100 | NCI-H3122 | 0.942
101 | NCI-H1437 | 1.04
102 | NCI-H1755 | 0.85
103 | NCI-H2023 | 0.36
104 | HCC-15 | 0.614
105 | PC-14 | 0.813
106 | EKVX | 0.602
107 | LC-2-ad | 0.599

same assay, conditions: first compound 1.265 µM

Row | Cell Line | relative viability
108 | HCC-78 | 0.421
109 | NCI-H322M | 0.655
110 | LCLC-97TM1 | 0.499
111 | NCI-H2009 | 1.14
112 | A-427 | 1.15
113 | NCI-H441 | 0.707
114 | NCI-H1734 | 0.408
115 | NCI-H460 | 0.87
116 | NCI-H2347 | 0.834
117 | SK-LU-1 | 0.575
118 | NCI-H1395 | 0.921
119 | 201T | 0.573
120 | NCI-H1915 | 1.18
121 | HCC-827 | 1.2
122 | LXF-289 | 0.991
123 | NCI-H23 | 0.914

Row | Cell Line | relative viability
124 | NCI-H647 | 1.17
125 | CAL-12T | 0.4
126 | NCI-H1651 | 0.895
127 | EPLC-272H | 0.796
128 | NCI-H2228 | 0.537
129 | NCI-H1355 | 1
130 | NCI-H3122 | 0.893
131 | NCI-H1437 | 1.11
132 | NCI-H1755 | 0.89
133 | NCI-H2023 | 0.279
134 | HCC-15 | 0.686
135 | NCI-H1793 | 0.715
136 | PC-14 | 0.93
137 | EKVX | 0.253
138 | LC-2-ad | 0.5

compound: C[C@@]1(C(=O)Nc2ccc(F)nc2)CCCN1c1nc(Nc2cc(C3CC3)n[nH]2)c2cccn2n1 + Nc1nc2[nH]cc(CCc3ccc(C(=O)N[C@@H](CCC(=O)O)C(=O)O)cc3)c2c(=O)[nH]1 [Pemetrexed] (partner 0.2 µM); experiment: as above; conditions: first compound 0.04 µM
How it was run: as §1

Row | Cell Line | relative viability
139 | HCC-78 | 0.898
140 | NCI-H322M | 0.63
141 | LCLC-97TM1 | 0.137
142 | NCI-H2009 | 1.07
143 | A-427 | 0.989
144 | NCI-H441 | 0.246
145 | NCI-H1734 | 0.418
146 | NCI-H460 | 0.0607
147 | NCI-H2347 | 0.437
148 | SK-LU-1 | 1.07
149 | NCI-H1395 | 0.89
150 | 201T | 0.324
151 | NCI-H1915 | 0.52
152 | HCC-827 | 0.264
153 | LXF-289 | 0.9
154 | NCI-H23 | 0.506

Row | Cell Line | relative viability
155 | NCI-H647 | 0.174
156 | CAL-12T | 0.818
157 | NCI-H1651 | 0.62
158 | EPLC-272H | 0.358
159 | NCI-H2228 | 0.388
160 | NCI-H1355 | 1.01
161 | NCI-H3122 | 0.202
162 | NCI-H1437 | 0.246
163 | NCI-H1755 | 0.444
164 | NCI-H2023 | 0.252
165 | HCC-15 | 0.216
166 | NCI-H1793 | 0.644
167 | PC-14 | 0.154
168 | EKVX | 0.415
169 | LC-2-ad | 0.28

same assay, conditions: first compound 0.1265 µM

Row | Cell Line | relative viability
170 | HCC-78 | 0.898
171 | NCI-H322M | 0.525
172 | LCLC-97TM1 | 0.155
173 | NCI-H2009 | 1.01
174 | A-427 | 0.939
175 | NCI-H441 | 0.261
176 | NCI-H1734 | 0.338
177 | NCI-H460 | 0.0684
178 | NCI-H2347 | 0.415
179 | SK-LU-1 | 0.833
180 | NCI-H1395 | 0.411
181 | 201T | 0.285
182 | NCI-H1915 | 0.46
183 | HCC-827 | 0.284
184 | LXF-289 | 0.921
185 | NCI-H23 | 0.437

Row | Cell Line | relative viability
186 | NCI-H647 | 0.163
187 | CAL-12T | 0.999
188 | NCI-H1651 | 0.508
189 | EPLC-272H | 0.291
190 | NCI-H2228 | 0.355
191 | NCI-H1355 | 0.957
192 | NCI-H3122 | 0.175
193 | NCI-H1437 | 0.242
194 | NCI-H1755 | 0.408
195 | NCI-H2023 | 0.137
196 | HCC-15 | 0.225
197 | NCI-H1793 | 0.825
198 | PC-14 | 0.155
199 | EKVX | 0.307
200 | LC-2-ad | 0.242

same assay, conditions: first compound 0.4 µM

Row | Cell Line | relative viability
201 | HCC-78 | 0.913
202 | NCI-H322M | 0.52
203 | LCLC-97TM1 | 0.149
204 | NCI-H2009 | 1.01
205 | A-427 | 0.927
206 | NCI-H441 | 0.243
207 | NCI-H1734 | 0.404
208 | NCI-H460 | 0.0535
209 | NCI-H2347 | 0.436
210 | SK-LU-1 | 0.778
211 | NCI-H1395 | 0.879
212 | 201T | 0.294
213 | NCI-H1915 | 0.48
214 | HCC-827 | 0.244
215 | LXF-289 | 0.804
216 | NCI-H23 | 0.399

Row | Cell Line | relative viability
217 | NCI-H647 | 0.174
218 | CAL-12T | 0.777
219 | NCI-H1651 | 0.517
220 | EPLC-272H | 0.349
221 | NCI-H2228 | 0.317
222 | NCI-H1355 | 0.826
223 | NCI-H3122 | 0.178
224 | NCI-H1437 | 0.242
225 | NCI-H1755 | 0.39
226 | NCI-H2023 | 0.152
227 | HCC-15 | 0.209
228 | NCI-H1793 | 0.634
229 | PC-14 | 0.134
230 | EKVX | 0.349
231 | LC-2-ad | 0.263

same assay, conditions: first compound 1.265 µM

Row | Cell Line | relative viability
232 | HCC-78 | 0.922
233 | NCI-H322M | 0.537
234 | LCLC-97TM1 | 0.143
235 | NCI-H2009 | 1.03
236 | A-427 | 0.813
237 | NCI-H441 | 0.267
238 | NCI-H1734 | 0.381
239 | NCI-H460 | 0.0527
240 | NCI-H2347 | 0.416
241 | SK-LU-1 | 0.85
242 | NCI-H1395 | 0.868
243 | 201T | 0.304
244 | NCI-H1915 | 0.529
245 | HCC-827 | 0.277
246 | LXF-289 | 0.859
247 | NCI-H23 | 0.312

Row | Cell Line | relative viability
248 | NCI-H647 | 0.123
249 | CAL-12T | 0.812
250 | NCI-H1651 | 0.447
251 | EPLC-272H | 0.23
252 | NCI-H2228 | 0.286
253 | NCI-H1355 | 0.953
254 | NCI-H3122 | 0.18
255 | NCI-H1437 | 0.284
256 | NCI-H1755 | 0.377
257 | NCI-H2023 | 0.0911
258 | HCC-15 | 0.211
259 | NCI-H1793 | 0.508
260 | PC-14 | 0.121
261 | EKVX | 0.356
262 | LC-2-ad | 0.211
